Measured values: ChEMBL document CHEMBL1165986, “Xestosaprols from the Indonesian marine sponge Xestospongia sp” (J Nat Prod, 2010)

Each compound was assayed against Beta-secretase 1 (Homo sapiens, UniProt P56817) (assay: Inhibition of BACE1 mediated cleavage of amyloid precursor protein by chemiluminescence assay).
Beta-secretase 1, sequence (P56817 whole entry): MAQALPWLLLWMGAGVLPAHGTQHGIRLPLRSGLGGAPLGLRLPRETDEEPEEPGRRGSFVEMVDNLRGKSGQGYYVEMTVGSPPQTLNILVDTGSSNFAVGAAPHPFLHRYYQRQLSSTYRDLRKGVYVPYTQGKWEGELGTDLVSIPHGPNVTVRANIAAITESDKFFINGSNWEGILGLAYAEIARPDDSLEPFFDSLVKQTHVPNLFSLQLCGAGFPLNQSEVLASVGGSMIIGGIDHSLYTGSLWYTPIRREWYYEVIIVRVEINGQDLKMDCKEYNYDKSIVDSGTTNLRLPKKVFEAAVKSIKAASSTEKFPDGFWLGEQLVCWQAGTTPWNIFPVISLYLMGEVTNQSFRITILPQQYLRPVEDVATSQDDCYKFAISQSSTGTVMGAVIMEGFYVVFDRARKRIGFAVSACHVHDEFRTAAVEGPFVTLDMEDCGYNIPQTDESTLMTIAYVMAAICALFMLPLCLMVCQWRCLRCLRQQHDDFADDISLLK

| SMILES | IC50 [µM] | inhibition |
| --- | --- | --- |
| C[C@@]12CC[C@@H](O)[C@@H]3COC(=C31)C(=O)c1cc3ccccc3cc12 [XESTOSAPROL I] | 163 | Dose-dependent effect |
| COc1cccc2cc3c(cc12)[C@]1(C)CC[C@H](O)[C@@H]2COC(=C21)C3=O [XESTOSAPROL J] | 90 | Dose-dependent effect |
| C[C@@]12CC[C@H](O)[C@@H]3COC(=C31)C(=O)c1cc3c(O)cccc3cc12 [XESTOSAPROL G] | 155 | Dose-dependent effect |
| C[C@@]12CC[C@H](O)[C@@H]3COC(=C31)C(=O)c1cc3c(OCCO)cccc3cc12 [XESTOSAPROL F] | 135 | Dose-dependent effect |

The remaining compounds from weak to strong by IC50, led by results:

| IC50 [µM] | inhibition | SMILES |
| --- | --- | --- |
| 104 | Dose-dependent effect | C[C@@]12CCCc3coc(c31)C(=O)c1cc3ccccc3cc12 [XESTOSAPROL M] |
| 98 | Dose-dependent effect | C[C@@]12CC[C@H](O)[C@@H]3COC(=C31)C(=O)c1cc3ccccc3cc12 [XESTOSAPROL L] |
| 93 | Dose-dependent effect | C[C@@]12CC[C@H](O)[C@@H]3COC(=C31)C(=O)c1cc3cccc(O)c3cc12 [XESTOSAPROL K] |
| 82 | Dose-dependent effect | C[C@@]12CC[C@@H](O)[C@@H]3COC(=C31)C(=O)c1cc3c(OCCO)cccc3cc12 [XESTOSAPROL H] |
